According to patent publication US9284283B2, “Macrocyclic compounds for modulating IL-17” (ENSEMBLE THERAPEUTICS CORPORATION, priority 2012, dated 2016):

The molecules below were run against T1, biotinylated human IL-17 (binding to IL17R/Fc) (Homo sapiens, UniProt Q16552) (assay: IL-17 competition ELISA II (captured IL17R/Fc, biotinylated IL-17)).
T1 construct: purchased R&D Systems 317-ILB (IL-17, biotinylated); 177-IR (IL17R/Fc)
T1 sequence (Q16552 20-155 limits assumed): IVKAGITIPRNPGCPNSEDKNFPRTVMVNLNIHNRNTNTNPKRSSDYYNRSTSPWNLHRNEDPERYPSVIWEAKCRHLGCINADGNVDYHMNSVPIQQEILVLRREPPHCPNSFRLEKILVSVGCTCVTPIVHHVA
Description: In this version, a high binding 96-well plate (Costar #9018) was coated with 20 nM of goat anti-human IgG (KPL 01-10-02) in PBS, 100 μL/well, for 30 min at 37° C. followed by 5 min at 4° C. The plate was then washed in PBST (PBS/0.05% Tween-20) on a plate washer, (BioTek ELx450) then blocked with protein-free blocking buffer (Thermo Scientific #37573) in 250 μL/well for 30 min on a shaker at room temperature, and then washed again. IL17R/Fc (R&D Systems #177-IR; 10 nM in PBST, 100 μL/well) was then added to all wells. The plate was then incubated for 30 minutes at room temperature on the shaker.
While the receptor capture step was underway, compound dilutions were prepared in PBST to a concentration of 1 μM in 1.5 mL tubes. After the receptor capture step, the plate was washed and 50 μL PBST was added to the wells in row B down to row H. Then, 62.5 μL of the 1 μM compound dilutions were added to the wells of row A. From row A, 12.5 μL of the compound solution was removed and added to row B with mixing and this process of 5-fold dilutions was continued, by row, to row G. One of the wells in row A received only PBST (62.5 μL) and this dilution series served as the no competitor control. Then, going up from row G to row A, 50 μL of b-IL-17 (biotinylated human IL-17, R&D Systems #317-ILB; 20 nM) was added to all wells. Row H received 50 μL of PBST and served as the blank row, i.e., no compound and no b-IL-17. The plate was then incubated for 30 minutes at room temperature on the shaker.
After the wash, 100 μL Streptavidin-Horseradish Peroxidase (SA-HRP) (KPL #14-30-00) at 25 ng/mL in PBST was added to each well in the plate and the plate incubated for 30 minutes at room temperature followed by wash and 100 μL SureBlue™ TMB (KPL #52-00-03). After sufficient color development (approx 3-6 minutes), the reaction was fixed by the addition of 100 μL/well 0.5 N HCl and absorbance was measured at 450 nm on a BioTek Synergy 2 plate reader. The absorbances of ‘no competitor’ control and blank control should not exceed 1.5 A.U. and 0.06 A.U., respectively.
Data was processed using BioAssay Enterprise v10.1.4 (CambridgeSoft) software. Linear OD λ450 were plotted against log concentration (x) and fitted to a 4-parameter logistic equation. IC50 was calculated using positive ‘no competitor’ control data as an upper limit and blank control as a lower limit in each assay.
In the case of C[C@H]1NC(=O)[C@@H](Cc2ccc(NC(=O)[C@H](Cc3ccccc3Cl)NC(=O)Cc3ccc(F)cc3)cc2)NC(=O)CC2(CCCC2)CC(=O)N2CCN(CCNC1=O)CC2 [Compound 541], the IC50 is reported as < 100 nM. In the case of CC(=O)NC(C(=O)Nc1ccc(CC2NC(=O)CC3(CCCC3)CC(=O)OCCCCCN(C)C(=O)CNC2=O)cc1)C1CCCCC1 (stereo not shown) [Compound 681], the IC50 is reported as < 100 nM. For O=C1CC2(CCCC2)CC(=O)N[C@H](Cc2ccc(NC(=O)[C@H](Cc3ccccc3Cl)NC(=O)Cc3cccc(O)c3)cc2)C(=O)NCCCC[C@@H](C(=O)O)N1 [Compound 461], the IC50 was < 100 nM. With O=C1CC2(CCCC2)CC(=O)N[C@H](Cc2ccc(NC(=O)[C@H](Cc3ccccc3C(F)(F)F)NC(=O)C3(c4ccc(F)cc4)CC3)cc2)C(=O)NCCOCCOCCN1 [Compound 508] the IC50 was 100 to 1000 nM. With CN1CCCCCN(C)C(=O)[C@@H](Cc2ccncc2)NC(=O)[C@@H](Cc2ccc(NC(=O)[C@H](Cc3ccccc3Cl)NC(=O)Cc3cccnc3)cc2)NC(=O)CC2(CCCC2)CC1=O [Compound 629] the IC50 was < 100 nM. For C[C@H]1NC(=O)[C@@H](Cc2ccc(NC(=O)[C@H](Cc3ccccc3Cl)NC(=O)c3cnc4ccccc4c3)cc2)NC(=O)CC2(CCCC2)CC(=O)NCCCCCNC1=O [Compound 428], the IC50 was < 100 nM. O=C1CC2(CCCC2)CC(=O)N[C@H](Cc2ccc(NC(=O)[C@H](Cc3ccccc3Cl)NC(=O)c3ccccc3)cc2)C(=O)NCCCCCCCCN1 [Compound 366] showed an IC50 of 100 to 1000 nM. In the case of C[C@H]1NC(=O)[C@@H](Cc2ccc(NC(=O)[C@H](Cc3ccccc3Cl)NC(=O)Cc3ccc(F)cc3)cc2)N(C)C(=O)CC2(CCCC2)CC(=O)NCCCCCN(C)C1=O [Compound 518], the IC50 is reported as < 100 nM. In the case of CN1CCCC[C@@H](C(=O)O)N(C)C(=O)CC2(CCCC2)CC(=O)N[C@H](Cc2ccc(NC(=O)[C@@H](NC(=O)C(F)(F)c3ccccc3)C3CCCCC3)cc2)C(=O)N[C@H](CCC(N)=O)C1=O [Compound 668], the IC50 is reported as < 100 nM. C[C@H]1NC(=O)[C@@H](Cc2ccc(NC(=O)[C@H](Cc3ccccc3Cl)Nc3nc4ccccc4o3)cc2)NC(=O)CC2(CCCC2)CC(=O)N(C)CCOCCN(C)C1=O [Compound 654] was tested, and the IC50 was < 100 nM. In the case of CN1CCNC(=O)CC2(CCCC2)CC(=O)N[C@H](Cc2ccc(NC(=O)[C@H](Cc3ccccc3Cl)NC(=O)NCc3ccccc3)cc2)C(=O)NCC1 [Compound 485], the IC50 is reported as < 100 nM. For O=C1CC2(CCCC2)CC(=O)N[C@H](Cc2ccc(NC(=O)[C@H](Cc3ccccc3Cl)NC(=O)C(F)(F)c3ccc(F)cc3)cc2)C(=O)NCCOCCOCCN1 [Compound 559], the IC50 was < 100 nM. In the case of COC(=O)N[C@@H](Cc1ccccc1Cl)C(=O)Nc1ccc(C[C@H]2NC(=O)CC3(CCCC3)CC(=O)N(C)CCOCCOCCNC2=O)cc1 [Compound 568], the IC50 is reported as < 100 nM. With CN1CCOCCOCCNC(=O)[C@@H](Cc2ccc(NC(=O)[C@H](Cc3ccccc3Cl)NC(=O)C(=O)c3ccccc3)cc2)NC(=O)CC2(CCCC2)CC1=O [Compound 585] the IC50 was < 100 nM. With C[C@H]1NC(=O)[C@@H](Cc2ccc(NC(=O)[C@H](Cc3ccccc3Cl)NC(=O)C3(c4ccc(F)cc4)CC3)cc2)NC(=O)CC2(CCCC2)CC(=O)N(C)CCN(C)CCN(C)C1=O [Compound 563] the IC50 was 100 to 1000 nM. With C[C@H]1NC(=O)[C@@H](Cc2ccc(NC(=O)[C@H](Cc3ccccc3Cl)NC(=O)Cc3ccc(F)cc3)cc2)NC(=O)CN(C)CC(=O)NCCCCCNC1=O [Compound 558] the IC50 was < 100 nM. In the case of C[C@H]1NC(=O)[C@@H](Cc2ccc(NC(=O)[C@H](Cc3ccccc3Cl)NC(=O)Cc3ccc(F)cc3)cc2)NC(=O)CC2(CCCCC2)NC(=O)CCCCCCNC1=O [Compound 621], the IC50 is reported as < 100 nM. In the case of CN1CCCCCN(C)C(=O)[C@@H](Cc2ccccn2)NC(=O)[C@@H](Cc2ccc(NC(=O)[C@H](Cc3ccccc3Cl)NC(=O)Cc3ccc(F)cc3)cc2)NC(=O)CC2(CCCC2)CC1=O [Compound 524], the IC50 is reported as < 100 nM. With O=C1CC2(CCCC2)CC(=O)N[C@H](Cc2ccc(NC(=O)[C@H](Cc3ccccc3Cl)NC(=O)Cc3ccc(F)cc3)cc2)C(=O)N[C@H](Cc2ccccn2)C(=O)NCCCCCN1 [Compound 435] the IC50 was < 100 nM. With CN1CCCCCOC(=O)CC2(CCCC2)CC(=O)N[C@H](Cc2ccc(NC(=O)[C@@H](NC(=O)C(F)(F)c3ccccc3)C3CCCCC3)cc2)C(=O)NCC1=O [Compound 679] the IC50 was < 100 nM. For O=C1CC2(CCCC2)CC(=O)N[C@H](Cc2ccc(NC(=O)[C@H](Cc3ccccc3Cl)NC(=O)Cc3ccc(CO)cc3)cc2)C(=O)NCCCN1 [Compound 401], the IC50 was < 100 nM. With C[C@H]1NC(=O)[C@@H](Cc2ccc(NC(=O)[C@H](Cc3ccccc3Cl)NC(=O)Cc3ccc(CO)cc3)cc2)NC(=O)CC2(CCCC2)CC(=O)NCc2cccc(c2)CNC1=O [Compound 520] the IC50 was < 100 nM. With COC(=O)c1coc(N[C@@H](Cc2ccccc2Cl)C(=O)Nc2ccc(C[C@H]3NC(=O)CC4(CCCC4)CC(=O)N(C)CCOCCN(C)C(=O)[C@@H](C)NC3=O)cc2)n1 [Compound 666] the IC50 was < 100 nM. For O=C(Cc1ccc(F)cc1)N[C@@H](Cc1ccccc1Cl)C(=O)Nc1ccc(C[C@H]2NC(=O)CC3(CCCC3)CC(=O)OCCCC/C=C/CNC2=O)cc1 [Compound 500], the IC50 was < 100 nM. C[C@H]1NC(=O)[C@@H](Cc2ccc(NC(=O)[C@H](Cc3ccccc3Cl)NC(=O)C(=O)c3ccccc3)cc2)NC(=O)CC2(CCCC2)CC(=O)N(C)CCOCCN(C)C1=O [Compound 594] was tested, and the IC50 was < 100 nM. Molecule CN1C(=O)CC2(CCCC2)CC(=O)NCCCCCC#CCNC(=O)[C@H]1Cc1ccc(NC(=O)[C@H](Cc2ccccc2Cl)NC(=O)C2(c3ccc(F)cc3)CC2)cc1 [Compound 491] has an IC50 of 1000 to 10000 nM. O=C1CNC(=O)[C@@H](Cc2ccc(-n3c(C(F)(F)F)nc(Cc4ccccc4Cl)c3OC(=O)C(F)(F)F)cc2)NC(=O)CC2(CCCC2)CC(=O)NCCCCCN1 [Compound 440] gave an IC50 of 100 to 1000 nM. Work on O=C1CC2(CCCC2)CC(=O)N[C@H](Cc2ccc(NC(=O)[C@H](Cc3ccccc3Cl)NC(=O)c3cccnc3)cc2)C(=O)NCCCCN1 [Compound 420] yielded an IC50 of 100 to 1000 nM. O=C1CC2(CCCC2)CC(=O)N[C@H](Cc2ccc(NC(=O)[C@@H](NC(=O)Cc3ccccc3)C3CCCCC3)cc2)C(=O)NCCCCCCCCCN1 [Compound 350] was tested, and the IC50 was 100 to 1000 nM. For CCC(F)(F)C(=O)N[C@H](C(=O)Nc1ccc(C[C@H]2NC(=O)CC3(CCCC3)CC(=O)OCCCCCNC(=O)CNC2=O)cc1)C1CCCCC1 [Compound 677], the IC50 was 100 to 1000 nM. With CN1CCNCCOC(=O)CC2(CCCC2)CC(=O)N[C@H](Cc2ccc(NC(=O)[C@H](Cc3ccccc3Cl)NC(=O)Cc3ccccc3)cc2)C(=O)N[C@H](Cc2ccccc2)C1=O [Compound 445] the IC50 was < 100 nM. With C[C@H]1NC(=O)[C@@H](CCNC(=O)[C@H](Cc2ccccc2Cl)NC(=O)Cc2ccc(F)cc2)NC(=O)CC2(CCCC2)CC(=O)NCCCCCNC1=O [Compound 609] the IC50 was > 10000 nM. For CN1CCOCCOCCNC(=O)[C@@H](Cc2ccc(NC(=O)[C@H](CC3CCC3)NC(=O)C(F)(F)c3ccccc3)cc2)NC(=O)CC2(CCCC2)CC1=O [Compound 615], the IC50 was < 100 nM. With C[C@H]1NC(=O)[C@@H](CCCNC(=O)[C@H](Cc2ccccc2Cl)NC(=O)C(F)(F)c2ccccc2)NC(=O)CC2(CCCC2)CC(=O)NCCCCCNC1=O [Compound 608] the IC50 was > 10000 nM. Work on O=C1CC2(CCCC2)CC(=O)N[C@H](Cc2ccc(NC(=O)[C@@H](NC(=O)c3cccnc3)C3CCCCC3)cc2)C(=O)NCCCCCCCCCN1 [Compound 407] yielded an IC50 of 100 to 1000 nM. For CN1CCNC(=O)CC2(CCCC2)CC(=O)N[C@H](Cc2ccc(NC(=O)[C@H](Cc3ccccc3Cl)NC(=O)Cc3cccc(O)c3)cc2)C(=O)NCC1 [Compound 467], the IC50 was < 100 nM. With Cc1cccc(CC(=O)N[C@@H](Cc2ccccc2Cl)C(=O)Nc2ccc(C[C@H]3NC(=O)CC4(CCCC4)CC(=O)NCCOCCOCCNC3=O)cc2)c1 [Compound 496] the IC50 was < 100 nM. In the case of CN1CCCCCNC(=O)CC2(CCCC2)CC(=O)NC(Cc2ccc(NC(=O)C(NC(=O)c3cccnc3)C3CCCCC3)cc2)C1=O (stereo not shown) [Compound 422], the IC50 is reported as 1000 to 10000 nM. For C[C@H]1NC(=O)[C@@H](Cc2ccc(NC(=O)[C@@H](Nc3nc4ccccc4o3)C3CCCCC3)cc2)NC(=O)CC2(CCCC2)CC(=O)NCCCCCNC1=O [Compound 664], the IC50 was < 100 nM. For C[C@H]1NC(=O)[C@@H](Cc2ccc(NC(=O)[C@H](Cc3ccccc3Cl)NC(=O)c3ccc(F)cc3)cc2)NC(=O)CC2(CCCC2)CC(=O)N(C)CCCCCN(C)C1=O [Compound 525], the IC50 was < 100 nM.
